This note sets out measurements from US20250221996A1, “HETEROCYCLIC COMPOUNDS, COMPOSITIONS THEREOF, AND METHODS OF TREATMENT THEREWITH” (BeiGene, Ltd., priority 2022, published 2025).

The experiment relates to pERK1/2(THR202/TYR204) level in AsPC-1 cells. The experiment can be described thus: pERK assay (HTRF) in AsPC-1 cell line. The note with it: 2 h compound treatment. The experiment is classed as cell-based. The protocol: AsPC-1 cell line was used in this study. Cells were maintained in RPMI-1640 supplemented with 10% fetal bovine serum (Thermo Fisher), 50 units/mL penicillin and streptomycin (Thermo Fisher) and kept at 37° C. in a humidified atmosphere of 5% CO2 in air. Cells were reinstated from frozen stocks that were laid down within 30 passages from the original cells purchased. 30000 cells per well were seeded into a 96-well plate and incubated overnight. Cells were treated with a 10-point dilution series. The final compound concentration is from 0 to 10 μM. After 2 h compound treatment, cells were lysed, and the pERK1/2(THR202/TYR204) level in the cell lysates was detected by HTRF kit (Cisbio). In brief, a total of 16 μL of cell lysate from each well of a 96-well plate was transferred to a 384-well white assay plate. Lysate from each well was incubated with 2 μL of Eu3+-cryptate (donor) labeled anti-phospho-ERK1/2 and 2 μL of D2 (acceptor) labeled anti-phospho-ERK1/2 antibodies (Cisbio) overnight in dark at room temperature. When donor and acceptor are in close proximity, excitation of the donor with laser triggers a Fluorescence Resonance Energy Transfer (FRET) towards the acceptor, which in turn fluoresces at 655 nm wavelength. FRET signals were measured using a PHERAstar FSX reader (BMG Labtech). IC50 determination was performed by fitting the curve of percent inhibition versus the log of the inhibitor concentration using Dotmatics.
Background: In TR-FRET formats the signal depends on donor and acceptor labels being close together.

The structures appear in SMILES notation.

By IC50 is commonly meant the point on the concentration scale where inhibition reaches its midpoint. Read a high IC50 as a need for much substance. The compound `N#Cc1c(N)sc2c(F)ccc(-c3c(C(F)(F)F)cc4c(N5CC6CCC(C5)N6)nc(OCC56CCC(C5)OC6)nc4c3F)c12` (stereo not shown) [Example 7, 4-(2-((2-oxabicyclo[2.2.1]heptan-4-yl)methoxy)-4-(3,8-diazabicyclo[3.2.1]octan-3-yl)-8-fluoro-6-(trifluoromethyl)quinazolin-7-yl)-2-amino-7-fluorobenzo[b]thiophene-3-carbonitrile] returned an IC50 (Homo sapiens, ASPC1, 2 h) of 112 nM.
The same measure, in the same setting: next, `COC(=O)N1CC(C)(COc2nc(N3CC4CCC(C3)N4)c3cc(C(F)(F)F)c(-c4ccc(F)c5sc(N)c(C#N)c45)c(F)c3n2)C1` [Example 8, methyl 3-(((7-(2-amino-3-cyano-7-fluorobenzo[h]thiophen-4-yl)-4-(3,8-diazabicyclo[3.2.1]octan-3-yl)-8-fluoro-6-(trifluoromethyl)quinazolin-2-yl)oxy)methyl)-3-methylazetidine-1-carboxylate]: 159 nM.
For `N#Cc1c(N)sc2c(F)ccc(-c3c(C(F)(F)F)cc4c(N5CC6CCC(C5)N6)nc(OCC5(CO)CCOCC5)nc4c3F)c12` [Example 50, 4-(4-(3,8-diazabicyclo[3.2.1]octan-3-yl)-8-fluoro-2-((4-(hydroxymethyl)tetrahydro-2H-pyran-4-yl)methoxy)-6-(trifluoromethyl)quinazolin-7-yl)-2-amino-7-fluorobenzo[b]thiophene-3-carbonitrile], the midpoint of inhibition (Homo sapiens, ASPC1, 2 h), the IC50, lay at 193 nM.
The same measure, in the same setting: next, `Cn1ccnc1N1CC(COc2nc(N3CC4CCC(C3)N4)c3cc(C(F)(F)F)c(-c4ccc(F)c5sc(N)c(C#N)c45)c(F)c3n2)C1` [Example 24, 4-(4-(3,8-diazabicyclo[3.2.1]octan-3-yl)-8-fluoro-2-((1-(1-methyl-1H-imidazol-2-yl)azetidin-3-yl)methoxy)-6-(trifluoromethyl)quinazolin-7-yl)-2-amino-7-fluorobenzo[b]thiophene-3-carbonitrile]: 200 nM; `N#Cc1c(N)sc2c(F)ccc(-c3c(C(F)(F)F)cc4c(N5CC6CCC(C5)N6)nc(OCC5(C(F)F)COC5)nc4c3F)c12` (single isomer, unassigned) [Example 48-Isomer 2, 4-(4-(3,8-diazabicyclo[3.2.1]octan-3-yl)-2-((3-(difluoromethyl)oxetan-3-yl)methoxy)-8-fluoro-6-(trifluoromethyl)quinazolin-7-yl)-2-amino-7-fluoro benzo[b]thiophene-3-carbonitrile]: 65 nM; `CC1(O)COCC1COc1nc(N2CC3CCC(C2)N3)c2cc(C(F)(F)F)c(-c3ccc(F)c4sc(N)c(C#N)c34)c(F)c2n1` (stereo not shown) [Example 27, 4-(4-(3,8-diazabicyclo[3.2.1]octan-3-yl)-8-fluoro-2-((4-hydroxy-4-methyltetrahydrofuran-3-yl)methoxy)-6-(trifluoromethyl)quinazolin-7-yl)-2-amino-7-fluorobenzo[b]thiophene-3-carbonitrile]: 975 nM.
The same measure, in the same setting: next, `N#Cc1c(N)sc2c(F)ccc(-c3c(C(F)(F)F)cc4c(N5CC6CCC(C5)N6)nc(OCC5(C(F)F)CCOC5)nc4c3F)c12` (single isomer, unassigned) [Example 14-Isomer 3, 4-(4-(3,8-diazabicyclo[3.2.1]octan-3-yl)-2-((3-(difluoromethyl)tetrahydrofuran-3-yl)methoxy)-8-fluoro-6-(trifluoromethyl)quinazolin-7-yl)-2-amino-7-fluorobenzo[b]thiophene-3-carbonitrile]: 172 nM; `N#Cc1c(N)sc2c(F)ccc(-c3c(C(F)(F)F)cc4c(N5CC6CCC(C5)N6)nc(OCC5(O)CCOC5)nc4c3F)c12` (stereo not shown) [Example 6, 4-(4-(3,8-diazabicyclo[3.2.1]octan-3-yl)-8-fluoro-2-((3-hydroxytetrahydrofuran-3-yl)methoxy)-6-(trifluoromethyl)quinazolin-7-yl)-2-amino-7-fluoro benzo[b]thiophene-3-carbonitrile]: 187 nM.
`N#Cc1c(N)sc2c(F)ccc(-c3c(C(F)(F)F)cc4c(N5CC6CCC(C5)N6)nc(OCC5(C#N)CCOC5)nc4c3F)c12` (single isomer, unassigned) [Example 10-Isomer 2, 3-(((7-(2-amino-3-cyano-7-fluorobenzo[b]thiophen-4-yl)-4-(3,8-diazabicyclo[3.2.1]octan-3-yl)-8-fluoro-6-(trifluoromethyl)quinazolin-2-yl)oxy)methyl)tetrahydrofuran-3-carbonitrile] had an IC50 above 10000 nM.
For the compound `N#Cc1c(N)sc2c(F)ccc(-c3c(C(F)(F)F)cc4c(N5CC6CCC(C5)N6)nc(OCC5(C#N)CCOC5)nc4c3F)c12` (single isomer, unassigned) [Example 10-Isomer 1, 3-(((7-(2-amino-3-cyano-7-fluorobenzo[b]thiophen-4-yl)-4-(3,8-diazabicyclo[3.2.1]octan-3-yl)-8-fluoro-6-(trifluoromethyl)quinazolin-2-yl)oxy)methyl)tetrahydrofuran-3-carbonitrile], the IC50 is above 10000 nM.
The compound `N#Cc1c(N)sc2c(F)ccc(-c3c(C(F)(F)F)cc4c(N5CC6CCC(C5)N6)nc(OCC5CCOCC5)nc4c3F)c12` [Example 23, 4-(4-(3,8-diazabicyclo[3.2.1]octan-3-yl)-8-fluoro-2-((tetrahydro-2H-pyran-4-yl)methoxy)-6-(trifluoromethyl)quinazolin-7-yl)-2-amino-7-fluorobenzo[b]thiophene-3-carbonitrile] gave an IC50 (Homo sapiens, ASPC1, 2 h) of 334 nM.
Compound `N#CCC1(COc2nc(N3CC4CCC(C3)N4)c3cc(C(F)(F)F)c(-c4ccc(F)c5sc(N)c(C#N)c45)c(F)c3n2)CCOC1` (stereo not shown) [Example 37, 4-(4-(3,8-diazabicyclo[3.2.1]octan-3-yl)-2-((3-(cyanomethyl)tetra hydrofuran-3-yl)methoxy)-8-fluoro-6-(trifluoromethyl)quinazolin-7-yl)-2-amino-7-fluorobenzo[h]thiophene-3-carbonitrile] gave an IC50 (Homo sapiens, ASPC1, 2 h) of 119 nM.
Same read-out and setting: next, `COCC12CC(COc3nc(N4CC5CCC(C4)N5)c4cc(C(F)(F)F)c(-c5ccc(F)c6sc(N)c(C#N)c56)c(F)c4n3)(CO1)C2` (single isomer, unassigned) [Example 11-Isomer 2, 4-(4-(3,8-diazabicyclo[3.2.1]octan-3-yl)-8-fluoro-2-((1-(methoxymethyl)-2-oxabicyclo[2.1.1]hexan-4-yl)methoxy)-6-(trifluoromethyl)quinazolin-7-yl)-2-amino-7-fluorobenzo[b]thiophene-3-carbonitrile]: 37 nM; `CC1(COc2nc(N3CC4CCC(C3)N4)c3cc(C(F)(F)F)c(-c4ccc(F)c5sc(N)c(C#N)c45)c(F)c3n2)CN(C(=O)C2CC2)C1` [Example 31, 4-(4-(3,8-diazabicyclo[3.2.1]octan-3-yl)-2-((1-(cyclopropanecarbonyl)-3-methylazetidin-3-yl)methoxy)-8-fluoro-6-(trifluoromethyl)quinazolin-7-yl)-2-amino-7-fluorobenzo[b]thiophene-3-carbonitrile]: 299 nM.
Still for that read-out and setting: next, `Cn1ccnc1N1CC(C)(COc2nc(N3CC4CCC(C3)N4)c3cc(C(F)(F)F)c(-c4ccc(F)c5sc(N)c(C#N)c45)c(F)c3n2)C1` [Example 54, 4-(4-(3,8-diazabicyclo[3.2.1]octan-3-yl)-8-fluoro-2-((3-methyl-1-(1-methyl-1H-imidazol-2-yl)azetidin-3-yl)methoxy)-6-(trifluoromethyl)quinazolin-7-yl)-2-amino-7-fluorobenzo[b]thiophene-3-carbonitrile]: 32 nM.
Same read-out and setting: next, `CC1(COc2nc(N3CC4CCC(C3)N4)c3cc(C(F)(F)F)c(-c4ccc(F)c5sc(N)c(C#N)c45)c(F)c3n2)CN(c2ncco2)C1` [Example 46, 4-(4-(3,8-diazabicyclo[3.2.1]octan-3-yl)-8-fluoro-2-((3-methyl-1-(oxazol-2-yl)azetidin-3-yl)methoxy)-6-(trifluoromethyl)quinazolin-7-yl)-2-amino-7-fluorobenzo[b]thiophene-3-carbonitrile]: 222 nM.
Regarding `N#Cc1c(N)sc2c(F)ccc(-c3c(Cl)cc4c(N5CC6CCC(C5)N6)nc(OCC56COC(C5)C6)nc4c3F)c12` (single isomer, unassigned) [Example 2-Isomer 1, 4-(2-((2-oxabicyclo[2.1.1]hexan-4-yl)methoxy)-4-(3,8-diazabicyclo[3.2.1]octan-3-yl)-6-chloro-8-fluoroquinazolin-7-yl)-2-amino-7-fluorobenzo[b]thio phene-3-carbonitrile], it took 160 nM to reach half-maximal inhibition (IC50).
Take `N#Cc1c(N)sc2c(F)ccc(-c3c(C(F)(F)F)cc4c(N5CC6CCC(C5)N6)nc(OCC5(C(F)F)CCOCC5)nc4c3F)c12` [Example 43, 4-(4-(3,8-diazabicyclo[3.2.1]octan-3-yl)-2-((4-(difluoromethyl)tetrahydro-2H-pyran-4-yl)methoxy)-8-fluoro-6-(trifluoromethyl)quinazolin-7-yl)-2-amino-7-fluorobenzo[h]thiophene-3-carbonitrile]: the midpoint of inhibition (Homo sapiens, ASPC1, 2 h), the IC50, lay at 479 nM.
For `N#Cc1c(N)sc2c(F)ccc(-c3c(C(F)(F)F)cc4c(N5CC6CCC(C5)N6)nc(OCC5CC6(COC6)C5)nc4c3F)c12` [Example 33, 4-(2-((2-oxaspiro[3.3]heptan-6-yl)methoxy)-4-(3,8-diazabicyclo [3.2.1]octan-3-yl)-8-fluoro-6-(trifluoromethyl)quinazolin-7-yl)-2-amino-7-fluoro benzo[b]thiophene-3-carbonitrile], the IC50 (Homo sapiens, ASPC1, 2 h) was found to be 163 nM.
